The target of the assay is CDK2 (UniProt P24941).

As a reminder, the Kd is the equilibrium constant for the complex coming apart. A lower Kd goes with higher affinity.

Consider `O=C1c2ccccc2-c2n[nH]c3cccc1c23`, for which the Kd stood at 3.2 µM.
